# From patent publication US9688654B2, “Compounds inhibiting leucine-rich repeat kinase enzyme activity” (Merck Sharp & Dohme Corp., priority 2013, dated 2017)
# Legend:
# [1] = target: T1, LRRK2 (G2019S mutation, GST-LRRK2 (amino acids 970-2527)) (Homo sapiens, UniProt Q5S007, G2019S); test: LRRK2 5 mM ATP LanthaScreen Assay; format: biochemical; conditions: mean IC50
# T1 construct: GST-LRRK2 (amino acids 970-2527); GST (N); purchased Life Technologies Corporation
# Procedure: (§1) The data presented for the 5 mM and Km ATP LanthaScreen™ Assay represents mean IC50 values based on several test results and may have reasonable. deviations depending on the specific conditions and reagents used. Reagents for the LRRK2 5 mM and Km ATP LanthaScreen™ Assay were purchased from Life Technologies Corporation.
# LRRK2 5 mM ATP LanthaScreen™ Assay
# (§2) • a) 400 nl of a 1:2.15 serial dilution of test compound (98 μM top assay concentration) is spotted via Labcyte Echo to certain wells in a 384 well black, untreated plate. Control wells contain 400 nl of either DMSO or 400 nl of a known inhibitor in DMSO. • b) 10 μl of a 2.5 nM LRRK2 (G2019S mutation, GST-LRRK2 (amino acids 970-2527)) enzyme solution in 1× assay buffer (50 mM Tris pH 8.5, 10 mM MgCl2, 0.01% Brij-35, 1.0 mM EGTA, 2 mM DTT, 0.05 mM NaVO4) is added to all wells. • c) A 30 minute room temperature incubation is followed by addition of 10 μl of 800 nM fluorescein labeled LRRKtide peptide substrate and 10 mM ATP solution in 1× assay buffer to all wells. • d) After a 35 minute room temperature incubation, 20 μl of TR-FRET Dilution Buffer (Invitrogen PV3756B) containing 4 nM Tb-labeled anti-phospho LRRKtide antibody and 20 mM EDTA is added to all wells. • e) Plates are incubated at room temperature for 1 hour and read on an Envision™ multi-mode plate reader with LanthaScreen™ settings. Results are analysed using Assay Data Analyzer. […] Results are analysed using Assay Data Analyzer.
# [2] = target: T1, LRRK2 (G2019S mutation, GST-LRRK2 (amino acids 970-2527)); test: LRRK2 Km ATP LanthaScreen Assay; format: biochemical; conditions: mean IC50
# Procedure: Unless otherwise noted, all LRRK2 IC50 data presented in tables refers to the LRRK2 Km ATP LanthaScreen™ Assay that is described in the Biological Assay section.
# as §1
# as §2, with “[…])” for “of 800 nM fluorescein labeled LRRKtide peptide substrate and 10 mM ATP solution in 1× assay buffer to all wells. • d)”
# T1 sequence (Q5S007 970-2527 G2019S): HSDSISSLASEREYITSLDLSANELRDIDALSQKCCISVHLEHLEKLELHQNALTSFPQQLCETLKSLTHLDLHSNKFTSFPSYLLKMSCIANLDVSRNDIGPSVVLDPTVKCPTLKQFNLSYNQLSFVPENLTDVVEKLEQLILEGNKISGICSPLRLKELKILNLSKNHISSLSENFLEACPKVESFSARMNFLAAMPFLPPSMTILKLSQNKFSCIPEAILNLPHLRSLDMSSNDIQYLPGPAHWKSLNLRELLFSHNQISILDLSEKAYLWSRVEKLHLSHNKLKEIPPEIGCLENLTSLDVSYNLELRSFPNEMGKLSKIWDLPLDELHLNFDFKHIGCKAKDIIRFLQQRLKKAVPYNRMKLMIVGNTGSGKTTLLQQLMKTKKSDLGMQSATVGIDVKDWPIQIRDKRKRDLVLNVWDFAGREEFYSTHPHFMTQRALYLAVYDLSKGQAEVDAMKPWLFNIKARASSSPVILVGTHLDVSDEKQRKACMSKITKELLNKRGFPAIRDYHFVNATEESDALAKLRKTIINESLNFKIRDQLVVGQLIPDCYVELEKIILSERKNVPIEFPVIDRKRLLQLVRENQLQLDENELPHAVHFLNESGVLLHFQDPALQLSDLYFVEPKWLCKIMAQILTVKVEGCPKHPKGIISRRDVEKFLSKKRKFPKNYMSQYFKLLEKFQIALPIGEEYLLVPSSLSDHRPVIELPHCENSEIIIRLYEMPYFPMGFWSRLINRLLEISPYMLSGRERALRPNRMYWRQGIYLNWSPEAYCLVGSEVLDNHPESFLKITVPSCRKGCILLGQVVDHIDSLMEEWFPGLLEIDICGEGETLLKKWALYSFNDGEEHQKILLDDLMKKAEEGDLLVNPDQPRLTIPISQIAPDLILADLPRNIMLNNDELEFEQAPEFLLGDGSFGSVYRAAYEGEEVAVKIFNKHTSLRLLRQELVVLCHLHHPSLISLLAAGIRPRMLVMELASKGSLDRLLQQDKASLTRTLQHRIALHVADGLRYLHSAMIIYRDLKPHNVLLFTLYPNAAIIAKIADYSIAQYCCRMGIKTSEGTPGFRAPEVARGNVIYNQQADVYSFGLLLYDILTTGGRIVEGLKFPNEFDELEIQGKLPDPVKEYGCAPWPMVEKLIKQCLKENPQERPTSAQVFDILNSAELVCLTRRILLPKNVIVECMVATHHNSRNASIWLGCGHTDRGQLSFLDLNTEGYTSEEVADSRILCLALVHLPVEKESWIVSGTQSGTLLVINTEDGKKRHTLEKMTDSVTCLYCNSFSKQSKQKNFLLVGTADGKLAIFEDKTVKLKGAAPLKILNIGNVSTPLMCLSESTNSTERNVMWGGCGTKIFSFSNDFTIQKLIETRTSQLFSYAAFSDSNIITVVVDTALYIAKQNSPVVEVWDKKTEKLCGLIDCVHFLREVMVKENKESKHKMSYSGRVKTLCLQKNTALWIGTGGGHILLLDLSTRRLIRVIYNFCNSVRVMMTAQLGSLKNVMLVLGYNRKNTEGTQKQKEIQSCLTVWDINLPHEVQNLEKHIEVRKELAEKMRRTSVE
Compound,IC50 [1] [nM],IC50 [2] [nM]
c1cc(-c2n[nH]c3ccc(OC4CC4)cc23)cc(N2CCC2)n1 [Example 9],225,16
CCc1nnc2n1CCN(c1cc(-c3n[nH]c4ccc(OC5CC5)cc34)ccn1)C2 [Example 23],297,12
c1cc(-c2n[nH]c3ccc(OC4CC4)cc23)cc(N2CCN(C3CC3)CC2)n1 [Example 26],300,12
